Data set [1] can be described thus: GLP toxicity phase: intratracheal instillation once daily for five days. The class given is in vivo, Sprague-Dawley rats. To be noted: for Body weight: female rats, at terminal euthanasia vs pre-dose. As to the method:
Safety studies are described in Example 3, below. In a safety study conducted in compliance with Good Laboratory Practices (GLPs), 0.3 mL (300 μl) was administered to rats weighing 250-350 grams via intratracheal instillation daily for five consecutive days. […] The calculated dose based on lung weight was about 1.57 μg/g wet lung weight.
This study was conducted using both male and female Sprague-Dawley rats (Envigo, Huntingdon, United Kingdom). Evaluation of the safety of the tracheal route of instillation for liothyronine sodium injection in human clinical trials can be accomplished in this species at appropriate dose levels. Furthermore, responses to thyroid hormone in rats are similar to responses in humans, and the choice of the rat model is based in large part on pharmacologic data from studies of thyroid hormone and associated receptors and physiological responses in rat lung. The University of Minnesota is accredited by the Association for the Assessment and Accreditation of Laboratory Animal Care, International (AAALAC) and registered with the United States Department of Agriculture to conduct research in laboratory animals. Animal studies conformed to NIH guidelines (Guide for the Care and Use of Laboratory Animals. NIH publication No. 86-23. Revised 1985). The protocol was reviewed and approved, as applicable, by the Institutional Animal Care and Use Committee (IACUC) at the University of Minnesota for compliance with regulations prior to study initiation or implementation of amended activities.
Sixty animals (plus two spare animals/sex/group) were anesthetized and dosed via intratracheal instillation of test or control materials for five consecutive days. On the day after the last dose a terminal blood collection was performed for clinical pathology, after which animals were euthanized and a gross examination of all organs was performed by a board-certified veterinary pathologist. Select tissues were collected for histopathology. […] Terminal blood collection was performed at two designated time points per animal up to 24 hours after administration for toxicokinetic evaluation. TK animals were euthanized without further evaluation after the final blood collection. All animals were acclimated for a minimum of seven days prior to the dosing procedure. Animals underwent baseline observations and examinations prior to the initiation of the study, and clinical observations and body weight monitoring were performed throughout the in-life portion of the study. All animals received the same dose volume (0.3 mL) of either test or control materials. This maximum feasible dose (MFD) is constrained by the maximum volume that can be safely and reproducibly (over five days) instilled into lungs of rats weighing 250 g to 350 g, which was determined in preliminary toxicology studies to be 0.3 mL. Actual doses delivered are reported as both μg/kg body weight and μg/gm wet lung weight. The toxicity phase animals were 72-135 days of age at the time of initial dosing. Males weighed between 256.52 g and 307.50 g with a mean±standard deviation of 286.74±11.77 g, and females weighed between 250.46 g and 299.01 g with a mean±standard deviation of 260.64±10.34 g. The TK phase animals were 68-144 days of age at the time of initial dosing. Males weighed between 261.23 g and 316.19 g; females weighed between 250.06 g and 280.32 g.
Test and control materials were drawn into dosing syringes using aseptic technique. Using a 18G needle, 0.5 mL of air was drawn into a 1 cc syringe followed by 0.3 mL (300 μL) of the solutions. Animals were anesthetized with a combination of ketamine, 40 mg/kg to 200 mg/kg, and xylazine, 1 mg/kg to 7 mg/kg intraperitoneally (IP), to effect. The dose was adjusted daily, as needed, based on individual animal response and recovery. Depth of anesthesia was evaluated by toe pinch, and eye lubricant was applied to the eyes. […]

A further data set relates to Akt. Briefly: Akt phosphorylation in RLE-6TN cells under hyperoxia. The class given is cell-based, rat. As to conditions: 24 hours hyperoxia, T3 added for 20 minutes; vs room air control and hyperoxia alone. As to the method: (§1) The cells were lysed in lysis buffer containing 20 mM Tris HCl (pH 7.5), 150 mM NaCl, 1 mM EDTA, 1 mM EGTA, 1% (vol/vol) Triton X-100 with protease inhibitors (1 mM PMSF, 2 μg/ml pepstatin, and 10 μg/ml each of aprotinin and leupeptin), and phosphatase inhibitors (2.5 mM sodium pyrophosphate, 1 mM β-glycerophosphate, and 1 mM Na3VO4). The lysate was drawn 10 times through a 25-gauge needle on ice for further lysis and then was centrifuged at 13,000 rpm for 15 minutes at 4° C. The supernatant was collected, and the protein concentrations were determined by use of the BCA protein assay kit (Sigma-Aldrich, St. Louis, MO). Immediately after this step, equal amounts of protein were subjected to Western blotting analysis.

For the next data set, the system named is HO-1. Description: Western blot of HO-1 protein in RLE-6TN cells under hyperoxia. As to conditions: T3 10^−6 M. The class given is cell-based, rat. As to the method: FIG. 10. HO-1 Upregulation is required for T3-increased RLE-6TN cell survival in hyperoxia. […] The cells were then collected for Western Blot analysis. (B) The cells were incubated in 21% O2 and 5% CO2 for 72 hours in the present of HO-1 inhibitor Tin Protoporphyrin IX(10^−6 M) tinT3 (10^−6 M). […] Cell viability is assessed with trypan blue. The number of viable cells under specific conditions is presented as a percentage of the cell number related to hyperoxia alone. Data are mean±s.d. of three independent experiments with *=P<0.05; **=P<0.01.
(§2) At the end of the hyperoxia exposure period, the viable cells were counted by trypan blue dye exclusion.
as §1
(Immunoblotting shows a protein as a band on a membrane.)

In data set [2] the test system is Sprague Dawley rats exposed to normobaric hyperoxia. Description: Hyperoxia-induced lung injury (HALI) model with intraperitoneal T3.
The next data set relates to Nrf2. Description: Western blot of Nrf2 protein in RLE-6TN cells under hyperoxia. The class given is cell-based, rat. To be noted: 24 hours hyperoxia, T3 10^−6 M.
Excerpt: FIG. 9. […] The cells were then collected for Western Blotting analysis. (A) Cellular total protein of Nrf2. (B) Nuclear Nrf2.
FIG. 12. T3-induced increase in Nrf2 and HO-1 protein via PI3K in hyperoxia. (A) Western Blot and densitometry data for total Nrf2. (B) Western Blot and densitometry data for cytoplasmic Nrf2. (C) Western Blot and densitometry data for nuclear Nrf2.
as §2
Nuclei were extracted with NE-PER nuclear and cytoplasmic extraction reagents kit (Thermo Fisher Scientific, Inc., Waltham, MA) following the manufacturer's instruction.
as §1

Setting [3] is: females, 1 day after fifth dose.

Consider `N[C@@H](Cc1cc(I)c(Oc2ccc(O)c(I)c2)c(I)c1)C(=O)O` [T3, triiodothyronine], for which, in data set [1] (all toxicity phase animals), the “Gross pathology at necropsy” value is reported as “No evidence of toxicity was observed grossly”. Besides, in data set [1] (during the study), the Clinical observations entry is “No adverse T3 related clinical observations were observed”. In data set [1] (end organs examined), the “Treatment-related macroscopic or microscopic findings” value was “no macroscopic or microscopic findings in any of the end organs examined”. In addition, the Body weight result in data set [1] (toxicity phase) is listed as “weighed slightly less than their pre-dose weight”; in data set [1] (toxicity phase, listed as liothyronine sodium) it was “did not regain body weight at the same rate as males or as in control groups”. Besides, the “Hematology vs control groups” value in data set [1] (setting [3]) is “mildly increased reticulocyte count and degree of polychromasia”. The “Serum chemistry vs control groups” value in data set [1] (setting [3]) is “slight statistical difference in the mean albumin concentration”; in data set [1] (males, 1 day after fifth dose), “slight difference in the mean globulin level”. Further, in data set [1] (five days intratracheal instillation), the “Organ weight of the lungs” value was “no differences in the organ weight of the lungs”. The “Hematology parameters vs control groups” value in data set [1] (males, 1 day after fifth dose) is “no statistical or clinically significant changes”. The “Deaths after dose administration” value in data set [1] (toxicity phase, T3 group, ascribed to colon impaction and instillation procedure) was “two T3 test animals that died after dose administration”. Also, in data set [1] (~2.7 μg in 0.3 mL intratracheally daily for five consecutive days), the “Complications or changes (histopathologic, physiologic, laboratory value assessments)” value was “No significant complications or changes were observed”. Further, in the data set with Akt, the “Phosphorylation of Akt at Ser473” value is reported as “augmented phosphorylation of Akt at Ser473”. Also, the “Total cellular HO-1 protein” value in the data set with HO-1 is recorded as “significantly enhanced total cellular protein of HO-1”. In addition, the BALF protein concentration entry in data set [2] (48-hour and 60-hour time points of hyperoxia, vs hyperoxia alone) is given as “attenuated significantly the hyperoxic increases in the BALF protein concentration”. Also, the “Serum total T3” value in data set [2] (95% oxygen 60 hours, intraperitoneal T3 supplementation (50 μg/kg bodyweight/24 hours)) is given as “augmented serum total T3”. In addition, the “MPO-positive cells in the lungs (immunostaining)” value in data set [2] (95% oxygen 60 hours, vs hyperoxic lungs without T3) is given as “fewer MPO-positive cells”. Moreover, the BALF cell numbers result in data set [2] (48 hours and 60 hours of 95% oxygen, vs hyperoxia alone) is reported as “significantly reduced the BALF cell numbers”. Further, in data set [2] (60 hours hyperoxia, systemic T3 supplementation), the “Lung morphology (histopathology)” value was “persistence of virtually normal lung morphology”. Further, in data set [2] (60 hours of hyperoxia), the “Lung MPO activity” value is “significantly reduced the hyperoxia-induced MPO activity”. In the data set with Nrf2, the “Total cellular and nuclear Nrf2 protein” value is “significantly increased both total cellular and nuclear Nrf-2 protein expression”.

For the origin of these results see patent US12569459B2, “Compositions and methods for treating pulmonary edema or lung inflammation” (priority 2020, dated 2026).
